{
  "source": "patent US8952024B2",
  "about": "“Herbicidal pyrimidone derivatives” (E I du Pont de Nemours and Company, priority 2009, dated 2015)",
  "format_in_all_cases": "in vivo",
  "key": {"rice (Oryza sativa)": {"test_system": "rice (Oryza sativa)", "assay": "Test B flooded paddy test", "settings": "for Plant response rating, Rice: Flood (flooded paddy test), 13 to 15 days", "summary_of_the_method": "(§1)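 Flooded-pot test: water raised to 3 cm above soil when treating, compound put in the water, level unchanged thereafter. Plants were at 2 leaves. Readout after 13 to 15 days, visual, relative to controls; 0 signifies no effect and 100 complete control.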"}, "[1]": {"test_system": "ducksalad (Heteranthera limosa)", "assay": "Test B flooded paddy test", "settings": "for Plant response rating, Ducksalad: Flood (flooded paddy test), 13 to 15 days", "summary_of_the_method": "as §1"}, "[2]": {"test_system": "umbrella sedge (Cyperus difformis)", "assay": "Test B flooded paddy test", "settings": "for Plant response rating, Sedge, Umbrella: Flood (flooded paddy test), 13 to 15 days", "summary_of_the_method": "as §1"}, "[3]": {"test_system": "barnyardgrass (Echinochloa crus-galli)", "assay": "Test B flooded paddy test", "settings": "for Plant response rating, Barnyardgrass: Flood (flooded paddy test), 13 to 15 days", "summary_of_the_method": "as §1"}, "[4]": {"test_system": "wheat (Triticum aestivum)", "assay": "Test A pre-/postemergence plant response", "summary_of_the_method": "(§2)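 Injury was scored visually after roughly ten days against untreated controls, 0 = no effect, 100 = complete control. Test chemicals in a surfactant-containing non-phytotoxic solvent were sprayed either onto soil preemergence or onto one- to two-leaf, 2–10 cm plants postemergence.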"}, "[5]": {"test_system": "large crabgrass (Digitaria sanguinalis)", "assay": "Test A pre-/postemergence plant response", "summary_of_the_method": "as §2"}, "[6]": {"test_system": "giant foxtail (Setaria faberii)", "assay": "Test A pre-/postemergence plant response", "summary_of_the_method": "as §2"}, "corn (Zea mays)": {"test_system": "corn (Zea mays)", "assay": "Test A pre-/postemergence plant response", "summary_of_the_method": "as §2"}, "[7]": {"test_system": "morningglory (Ipomoea spp.)", "assay": "Test A pre-/postemergence plant response", "summary_of_the_method": "as §2"}, "[8]": {"test_system": "pigweed (Amaranthus retroflexus)", "assay": "Test A pre-/postemergence plant response", "summary_of_the_method": "as §2"}, "[9]": {"test_system": "barnyardgrass (Echinochloa crus-galli)", "assay": "Test A pre-/postemergence plant response", "summary_of_the_method": "as §2"}, "[10]": {"test_system": "velvetleaf (Abutilon theophrasti)", "assay": "Test A pre-/postemergence plant response", "summary_of_the_method": "as §2"}, "[11]": {"settings": "250 g ai/ha, flooded paddy test, visual rating on 0 to 100 scale (0 no effect, 100 complete control) after 13 to 15 days"}, "[12]": {"settings": "31 g ai/ha, scale of 0 to 100 where 0 is no effect and 100 is complete control"}, "[13]": {"settings": "62 g ai/ha, scale 0 to 100, 0 is no effect, 100 is complete control"}, "[14]": {"settings": "125 g ai/ha, scale 0 to 100, 0 is no effect, 100 is complete control"}, "[15]": {"settings": "Postemergence, 125 g ai/ha, visual injury, 0 to 100 scale (0 no effect, 100 complete control), approx. ten days"}, "[16]": {"settings": "Postemergence, 500 g ai/ha, 0 to 100 scale, 0 = no effect, 100 = complete control, approx. ten days"}, "[17]": {"settings": "Preemergence, 125 g ai/ha, 0 to 100 scale, 0 = no effect, 100 = complete control"}, "[18]": {"settings": "Preemergence, 500 g ai/ha, visual injury, 0 to 100 scale (0 no effect, 100 complete control), approx. ten days"}},
  "data": [
    {"smiles": "COc1cccc(-n2c(-c3ccccc3)ncc(C(=O)C3=C(O)CCCC3=O)c2=O)c1", "note": "[Compound 19]", "values": [
      {"measurement": "Plant response rating, Flood, Rice", "setting": "rice (Oryza sativa); [11]", "value": 0},
      {"measurement": "Plant response rating, Rice", "setting": "rice (Oryza sativa); [12]", "value": 0},
      {"measurement": "Plant response rating, Rice", "setting": "rice (Oryza sativa); [13]", "value": 0},
      {"measurement": "Plant response rating, Rice", "setting": "rice (Oryza sativa); [14]", "value": 0},
      {"measurement": "Plant response rating, Flood, Ducksalad", "setting": "[1]; [11]", "value": 90},
      {"measurement": "Plant response rating, Ducksalad", "setting": "[1]; [12]", "value": 0},
      {"measurement": "Plant response rating, Ducksalad", "setting": "[1]; [13]", "value": 75},
      {"measurement": "Plant response rating, Ducksalad", "setting": "[1]; [14]", "value": 85},
      {"measurement": "Plant response rating, Flood, Sedge, Umbrella", "setting": "[2]; [11]", "value": 95},
      {"measurement": "Plant response rating, Sedge, Umbrella", "setting": "[2]; [12]", "value": 0},
      {"measurement": "Plant response rating, Sedge, Umbrella", "setting": "[2]; [13]", "value": 70},
      {"measurement": "Plant response rating, Sedge, Umbrella", "setting": "[2]; [14]", "value": 85},
      {"measurement": "Plant response rating, Flood, Barnyardgrass", "setting": "[3]; [11]", "value": 15},
      {"measurement": "Plant response rating, Barnyardgrass", "setting": "[3]; [12]", "value": 0},
      {"measurement": "Plant response rating, Barnyardgrass", "setting": "[3]; [13]", "value": 0},
      {"measurement": "Plant response rating, Barnyardgrass", "setting": "[3]; [14]", "value": 0},
      {"measurement": "Wheat plant response rating", "setting": "[4]; [15]", "value": 0},
      {"measurement": "Plant response rating, Wheat", "setting": "[4]; [16]", "value": 0},
      {"measurement": "Plant response rating, Wheat", "setting": "[4]; [17]", "value": 0},
      {"measurement": "Plant response rating, Wheat", "setting": "[4]; [18]", "value": 0},
      {"measurement": "Crabgrass, Large plant response rating", "setting": "[5]; [15]", "value": 0},
      {"measurement": "Plant response rating, Crabgrass, Large", "setting": "[5]; [16]", "value": 20},
      {"measurement": "Plant response rating, Crabgrass, Large", "setting": "[5]; [17]", "value": 20},
      {"measurement": "Plant response rating, Crabgrass, Large", "setting": "[5]; [18]", "value": 80},
      {"measurement": "Foxtail, Giant plant response rating", "setting": "[6]; [15]", "value": 20},
      {"measurement": "Plant response rating, Foxtail, Giant", "setting": "[6]; [16]", "value": 50},
      {"measurement": "Plant response rating, Foxtail, Giant", "setting": "[6]; [17]", "value": 10},
      {"measurement": "Plant response rating, Foxtail, Giant", "setting": "[6]; [18]", "value": 30},
      {"measurement": "Corn plant response rating", "setting": "corn (Zea mays); [15]", "value": 0},
      {"measurement": "Plant response rating, Corn", "setting": "corn (Zea mays); [16]", "value": 10},
      {"measurement": "Plant response rating, Corn", "setting": "corn (Zea mays); [17]", "value": 0},
      {"measurement": "Plant response rating, Corn", "setting": "corn (Zea mays); [18]", "value": 0},
      {"measurement": "Morningglory plant response rating", "setting": "[7]; [15]", "value": 0},
      {"measurement": "Plant response rating, Morningglory", "setting": "[7]; [16]", "value": 60},
      {"measurement": "Plant response rating, Morningglory", "setting": "[7]; [17]", "value": 0},
      {"measurement": "Plant response rating, Morningglory", "setting": "[7]; [18]", "value": 50},
      {"measurement": "Pigweed plant response rating", "setting": "[8]; [15]", "value": 80},
      {"measurement": "Plant response rating, Pigweed", "setting": "[8]; [16]", "value": 100},
      {"measurement": "Plant response rating, Pigweed", "setting": "[8]; [17]", "value": 80},
      {"measurement": "Plant response rating, Pigweed", "setting": "[8]; [18]", "value": 90},
      {"measurement": "Barnyardgrass plant response rating", "setting": "[9]; [15]", "value": 0},
      {"measurement": "Plant response rating, Barnyardgrass", "setting": "[9]; [16]", "value": 70},
      {"measurement": "Plant response rating, Barnyardgrass", "setting": "[9]; [17]", "value": 10},
      {"measurement": "Plant response rating, Barnyardgrass", "setting": "[9]; [18]", "value": 90},
      {"measurement": "Velvetleaf plant response rating", "setting": "[10]; [15]", "value": 100},
      {"measurement": "Plant response rating, Velvetleaf", "setting": "[10]; [16]", "value": 100},
      {"measurement": "Plant response rating, Velvetleaf", "setting": "[10]; [17]", "value": 50},
      {"measurement": "Plant response rating, Velvetleaf", "setting": "[10]; [18]", "value": 100}
    ]}
  ]
}
